Assay results: PubChem BioAssay (NCI)
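GI50 is the concentration that inhibits growth by half. Definition used: TGI = concentration required for complete inhibition of growth.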

What was measured:
Assay in all cases: NCI-60 cell line screen, 384-well format
U251 glioblastoma = tested on: U251 glioblastoma
MDA-MB-231 breast = tested on: MDA-MB-231 breast
HCC-2998 colon = tested on: HCC-2998 colon
NCI-H460 NSCLC = tested on: NCI-H460 NSCLC
SF-268 CNS = tested on: SF-268 CNS
SNB-75 CNS = tested on: SNB-75 CNS
HCT-15 colon = tested on: HCT-15 colon
MOLT-4 leukemia = tested on: MOLT-4 leukemia
UACC-257 melanoma = tested on: UACC-257 melanoma
COLO 205 colon = tested on: COLO 205 colon
T-47D breast = tested on: T-47D breast
LOX IMVI melanoma = tested on: LOX IMVI melanoma
HOP-62 NSCLC = tested on: HOP-62 NSCLC
OVCAR-8 ovarian = tested on: OVCAR-8 ovarian
HCT-116 colon = tested on: HCT-116 colon
MALME-3M melanoma = tested on: MALME-3M melanoma
SK-MEL-5 melanoma = tested on: SK-MEL-5 melanoma
OVCAR-3 ovarian = tested on: OVCAR-3 ovarian
SN12C renal = tested on: SN12C renal
HT29 colon = tested on: HT29 colon
HL-60(TB) leukemia = tested on: HL-60(TB) leukemia
SK-MEL-28 melanoma = tested on: SK-MEL-28 melanoma
HOP-92 NSCLC = tested on: HOP-92 NSCLC
CAKI-1 renal = tested on: CAKI-1 renal
DU-145 prostate = tested on: DU-145 prostate
A549 NSCLC = tested on: A549 NSCLC
SNB-19 CNS = tested on: SNB-19 CNS
SF-295 CNS = tested on: SF-295 CNS
NCI/ADR-RES ovarian = tested on: NCI/ADR-RES ovarian
NCI-H226 lung = tested on: NCI-H226 lung
SK-OV-3 ovarian = tested on: SK-OV-3 ovarian
MDA-MB-435 melanoma = tested on: MDA-MB-435 melanoma
SR leukemia = tested on: SR leukemia
ACHN renal = tested on: ACHN renal
UACC-62 melanoma = tested on: UACC-62 melanoma
RXF 393 renal = tested on: RXF 393 renal
NCI-H522 lung = tested on: NCI-H522 lung
PC-3 prostate = tested on: PC-3 prostate
RPMI-8226 leukemia = tested on: RPMI-8226 leukemia
TK-10 renal = tested on: TK-10 renal
MCF7 breast = tested on: MCF7 breast
M14 melanoma = tested on: M14 melanoma
MDA-MB-468 breast = tested on: MDA-MB-468 breast
A498 renal = tested on: A498 renal
OVCAR-4 ovarian = tested on: OVCAR-4 ovarian
HS 578T breast = tested on: HS 578T breast
SF-539 CNS = tested on: SF-539 CNS
EKVX NSCLC = tested on: EKVX NSCLC
KM12 colon = tested on: KM12 colon
BT-549 breast = tested on: BT-549 breast
OVCAR-5 ovarian = tested on: OVCAR-5 ovarian
IGROV1 ovarian = tested on: IGROV1 ovarian
NCI-H322M lung = tested on: NCI-H322M lung
NCI-H23 lung = tested on: NCI-H23 lung

FC(F)(F)c1cc(-c2ncn(/C=C\c3nnco3)n2)cc(C(F)(F)F)c1
GI50 (U251 glioblastoma): 19.5 nM | TGI (U251 glioblastoma): 190 nM | GI50 (MDA-MB-231 breast): < 10 nM | TGI (MDA-MB-231 breast): 142 nM | GI50 (HCC-2998 colon): 33.5 nM | TGI (HCC-2998 colon): 334 nM | GI50 (NCI-H460 NSCLC): < 10 nM | TGI (NCI-H460 NSCLC): 79.5 nM | GI50 (SF-268 CNS): < 10 nM | TGI (SF-268 CNS): 558 nM | GI50 (SNB-75 CNS): < 10 nM | TGI (SNB-75 CNS): 113 nM | GI50 (HCT-15 colon): 34.4 nM | TGI (HCT-15 colon): 493 nM | GI50 (MOLT-4 leukemia): < 10 nM | TGI (MOLT-4 leukemia): < 10 nM | GI50 (UACC-257 melanoma): 239 nM | TGI (UACC-257 melanoma): 2470 nM | GI50 (COLO 205 colon): < 10 nM | TGI (COLO 205 colon): 1980 nM | GI50 (T-47D breast): 190 nM | TGI (T-47D breast): 6280 nM | GI50 (LOX IMVI melanoma): 42.3 nM | TGI (LOX IMVI melanoma): 206 nM | GI50 (HOP-62 NSCLC): 31.8 nM | TGI (HOP-62 NSCLC): 231 nM | GI50 (OVCAR-8 ovarian): < 10 nM | TGI (OVCAR-8 ovarian): 1210 nM | GI50 (HCT-116 colon): < 10 nM | TGI (HCT-116 colon): 350 nM | GI50 (MALME-3M melanoma): 123 nM | TGI (MALME-3M melanoma): 425 nM | GI50 (SK-MEL-5 melanoma): 73.6 nM | TGI (SK-MEL-5 melanoma): 252 nM | GI50 (OVCAR-3 ovarian): < 10 nM | TGI (OVCAR-3 ovarian): 96.6 nM | GI50 (SN12C renal): 194 nM | TGI (SN12C renal): 1510 nM | GI50 (HT29 colon): < 10 nM | TGI (HT29 colon): 719 nM | GI50 (HL-60(TB) leukemia): < 10 nM | TGI (HL-60(TB) leukemia): 54.4 nM | GI50 (SK-MEL-28 melanoma): 33.8 nM | TGI (SK-MEL-28 melanoma): 386 nM | GI50 (HOP-92 NSCLC): 130 nM | TGI (HOP-92 NSCLC): 11000 nM | GI50 (CAKI-1 renal): < 10 nM | TGI (CAKI-1 renal): 18900 nM | GI50 (DU-145 prostate): 119 nM | TGI (DU-145 prostate): 514 nM | GI50 (A549 NSCLC): 10.1 nM | TGI (A549 NSCLC): 11300 nM | GI50 (SNB-19 CNS): 58.3 nM | TGI (SNB-19 CNS): 1130 nM | GI50 (SF-295 CNS): 16.9 nM | TGI (SF-295 CNS): 2300 nM | GI50 (NCI/ADR-RES ovarian): < 10 nM | TGI (NCI/ADR-RES ovarian): 1330 nM | GI50 (NCI-H226 lung): < 10 nM | TGI (NCI-H226 lung): 17 nM | GI50 (SK-OV-3 ovarian): < 10 nM | TGI (SK-OV-3 ovarian): 12500 nM | GI50 (MDA-MB-435 melanoma): 20.7 nM | TGI (MDA-MB-435 melanoma): 82.5 nM | GI50 (SR leukemia): < 10 nM | TGI (SR leukemia): < 10 nM | GI50 (ACHN renal): 67.3 nM | TGI (ACHN renal): 8770 nM | GI50 (UACC-62 melanoma): 12.5 nM | TGI (UACC-62 melanoma): 242 nM | GI50 (RXF 393 renal): < 10 nM | TGI (RXF 393 renal): 706 nM | GI50 (NCI-H522 lung): < 10 nM | TGI (NCI-H522 lung): 118 nM | GI50 (PC-3 prostate): < 10 nM | TGI (PC-3 prostate): 38.1 nM | GI50 (RPMI-8226 leukemia): < 10 nM | TGI (RPMI-8226 leukemia): < 10 nM | GI50 (TK-10 renal): 16.4 nM | TGI (TK-10 renal): 143 nM | GI50 (MCF7 breast): 19.1 nM | TGI (MCF7 breast): > 100000 nM | GI50 (M14 melanoma): 108 nM | TGI (M14 melanoma): 348 nM | GI50 (MDA-MB-468 breast): 154 nM | TGI (MDA-MB-468 breast): 381 nM | GI50 (A498 renal): < 10 nM | TGI (A498 renal): 82.2 nM | GI50 (OVCAR-4 ovarian): 179 nM | TGI (OVCAR-4 ovarian): 662 nM | GI50 (HS 578T breast): < 10 nM | TGI (HS 578T breast): 878 nM | GI50 (SF-539 CNS): < 10 nM | TGI (SF-539 CNS): 11.2 nM | GI50 (EKVX NSCLC): 184 nM | TGI (EKVX NSCLC): 9920 nM | GI50 (KM12 colon): 139 nM | TGI (KM12 colon): 3050 nM | GI50 (BT-549 breast): < 10 nM | TGI (BT-549 breast): 23.8 nM | GI50 (OVCAR-5 ovarian): 64.2 nM | TGI (OVCAR-5 ovarian): 588 nM | GI50 (IGROV1 ovarian): 104 nM | TGI (IGROV1 ovarian): 2890 nM | GI50 (NCI-H322M lung): 50.6 nM | TGI (NCI-H322M lung): 2580 nM | GI50 (NCI-H23 lung): < 10 nM | TGI (NCI-H23 lung): 1950 nM
